Laboratory results published in patent US20240140953A1, “INHIBITORS OF MENIN-MLL INTERACTION” (BIOMEA FUSION, INC., priority 2018, published 2024).
Read-outs that look alike come from different tables or passages of the source.

Legend:
MV4-11 = experiment: Long term proliferation, Cell Titer-Glo (Table 3B), MV4-11; assay type: cell-based; details: Homo sapiens, MV4-11, Cell Titer-Glo
MOLM-13 = experiment: Long term proliferation, InCell (Table 3C), MOLM-13; assay type: cell-based; details: Homo sapiens, MOLM-13, InCell
Protocol: Compounds of invention are tested in the 5 suspension lines by 14-day long-term proliferation assay.
The compound is tested in 10-pt dose titration (client will determine the starting concentration and the dilution scheme) and the final DMSO concentration is kept at 0.2%.
Vehicle and media control are also included. All treatments are done in triplicate.
• 1) On Day 0, in a flat bottom 96-well plate, add 100 μL of cells per well at the densities optimized. • 2) Prepare compounds in DMSO at 500× final concentration. Dilute the compounds with DMSO at the dilution. • 3) Dilute the compounds in media at 3×final concentration. Add 50 μL of compound or DMSO at 3× final concentration to each well. Final volume in each well is 150 μL, and final concentration of DMSO is 0.2%. Also include 3 untreated control wells, by adding 50 μL of media alone. 4) Incubate plates for 96 hours. • 5) Count the cells using the Acumen, with capabilities for 96-well plates. Pipette cells up and down to mix in each well, and add desired volume of cells to a new flat bottom poly-D-lysine 96-well plate. Add Calcein AM at 1 μM final concentration. Let cells sit at RT for 10 mins followed by a quick spin to get cells settled on the bottom of the wells. Incubate the plate for additional 40 mins in the incubator. Take out the plate and read by Acumen. Calculate the cell numbers taken into account the dilution factors. • 6) Split the master plate. To do this take the total viable cell count calculated using step 5). Take the average of the replicates for each dose in order to be used in splitting the cells. • 7) Use a 96 well V-bottom plate to spin down the cells to remove old media and compound to split the cells. Based on the split ratio place the proper amount of media and cells into the V-bottom plate, and spin the plate at 1100 rpm for 5 minutes. • 8) Following the spin remove the media, careful not to disturb the cellpellet. • 9) Re-suspend pellet in 100 μL fresh media, and add to a new 96-well flat bottom plate. • 10) Add fresh compound, in the same manner as Step 3). • 11) Incubate plates for 72 hours. Repeat steps 5)-10) on Day 7. • 12) Incubate plates for 96 hours. Repeat Step 5)-10) on Day 11. • 13) Incubate 72 hours and repeat step 5) to take a final count. • 14) Data Analysis
To calculate growth for days 4, 7, 11, and 14: • Calculate the split factor for day 4 to 7, day 7 to 11, and day 11-14.

[1] = 96 h, Day 4, read-out: Day 4 IC50
[2] = 264 h, Day 11, read-out: Day 11 IC50

IC50 (MV4-11; [1]): 740 nM
IC50 (MV4-11; 168 h, Day 7, read-out: Day 7 IC50): 380 nM
IC50 (MV4-11; [2]): 320 nM
IC50 (MV4-11; 336 h, Day 14, read-out: Day 14 IC50): 210 nM
IC50 (MOLM-13; [1]): 520 nM
IC50 (MOLM-13; [2]): 340 nM
Compound: O=C(Nc1ccc(-c2cc3c(N4CCOCC4)ncnc3[nH]2)cc1)Nc1cc(-c2cccnc2)n[nH]1 [Compound 9, 1-{4-[4-(morpholin-4-yl)-7H-pyrrolo[2,3-d]pyrimidin-6-yl]phenyl}-3-[3-(pyridin-3-yl)-1H-pyrazol-5-yl]urea]
